Data published in US20260297070A1, “CYCLIC [COMPOUND LEFT OUT] WRN INHIBITORS” (Nimbus Wadjet, Inc., priority 2023, published 2026).

Target: T1, human Werner helicase (WRN-BV08, Uniprot Q14191, amino acids 517-1235 with L1074F point mutation) (Homo sapiens, UniProt Q14191, L1074F)
T1 construct: Uniprot Q14191, amino acids 517-1235 with L1074F point mutation; TEV-cleavable 8×His (C, cleaved yes); made in house; host or cells: Sf9 insect cells (baculovirus)
Test: WRN (BV08) ADP-Glo Assay
Format: biochemical
Conditions: 0.15 nM WRN, 5 μM ATP, 0.1 nM DNA duplex, 15 min preincubation, 60 min at 25° C., pH 7.5, 1% DMSO; read-out: ADP-Glo_hWRN_IC50
Method in brief: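 ADP-Glo luminescence read-out of ATP hydrolysis. Conditions: 0.15 nM WRN, 5 μM ATP, 0.1 nM DNA duplex, 1% DMSO, 60 min at 25 °C after 15 min compound preincubation. Max/min controls were DMSO and 20 μM NSC-617145; IC50 from four-parameter fit.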

T1 sequence (Q14191 with tags, fused parts or gaps L1074F limits assumed): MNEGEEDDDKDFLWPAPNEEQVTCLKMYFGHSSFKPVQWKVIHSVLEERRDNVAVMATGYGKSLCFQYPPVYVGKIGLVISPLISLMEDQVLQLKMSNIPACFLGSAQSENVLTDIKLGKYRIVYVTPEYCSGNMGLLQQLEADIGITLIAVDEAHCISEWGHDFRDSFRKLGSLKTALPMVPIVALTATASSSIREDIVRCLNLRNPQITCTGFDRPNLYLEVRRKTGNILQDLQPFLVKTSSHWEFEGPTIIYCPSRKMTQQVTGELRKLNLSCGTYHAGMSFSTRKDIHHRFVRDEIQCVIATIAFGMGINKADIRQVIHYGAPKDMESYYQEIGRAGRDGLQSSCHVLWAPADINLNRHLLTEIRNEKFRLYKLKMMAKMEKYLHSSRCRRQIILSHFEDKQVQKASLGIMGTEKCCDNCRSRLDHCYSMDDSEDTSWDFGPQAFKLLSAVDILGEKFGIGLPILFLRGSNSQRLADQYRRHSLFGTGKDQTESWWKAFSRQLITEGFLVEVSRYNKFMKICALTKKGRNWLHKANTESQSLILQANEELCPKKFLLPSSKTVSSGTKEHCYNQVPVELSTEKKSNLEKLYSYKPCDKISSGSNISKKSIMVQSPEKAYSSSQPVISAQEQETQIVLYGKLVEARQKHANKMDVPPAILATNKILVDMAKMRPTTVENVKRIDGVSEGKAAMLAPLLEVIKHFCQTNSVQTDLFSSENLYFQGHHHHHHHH

IC50 [µM] | SMILES
0.5 to 5 | CC(C)(O)c1cc(CN(C(=O)Cc2ccc(-c3ccc(F)cc3)cc2Cl)C2C=CS(=O)(=O)C2)ccn1 (stereo not drawn) [I-101, 2-{3-chloro-4′-fluoro-[1,1′-biphenyl]-4-yl}-N-(1,1-dioxo-2,3-dihydro-1lambda6-thiophen-3-yl)-N-{[2-(2-hydroxypropan-2-yl)pyridin-4-yl]methyl}acetamide]
< 0.5 | CC(C)(O)c1cc(CN(C(=O)C2Cc3cc(S(F)(F)(F)(F)F)ccc3O2)[C@@H]2C=CS(=O)(=O)C2)ccn1 (single isomer, unassigned) [I-730]
> 50 | O=C(Cc1ccn(-c2ccc(F)cc2)n1)N(Cc1ccncc1)C1C=CS(=O)(=O)C1 (stereo not drawn) [I-394, N-(1,1-dioxo-2,3-dihydro-1lambda6-thiophen-3-yl)-2-[1-(4-fluorophenyl)-1H-pyrazol-3-yl]-N-[(pyridin-4-yl)methyl]acetamide]
0.5 to 5 | COc1cc(CN(C(=O)Cn2ncc3cc(OC(F)(F)F)ccc32)[C@@H]2C=CS(=O)(=O)C2)ccn1 [I-721, N-[(3R)-1,1-dioxo-2,3-dihydro-1lambda6-thiophen-3-yl]-N-[(2-methoxypyridin-4-yl)methyl]-2-[5-(trifluoromethoxy)-1H-indazol-1-yl]acetamide]
< 0.5 | CC(C)(O)c1csc(CN(C(=O)Cn2cc(-c3cc(F)c(F)c(F)c3)cn2)C2C=CS(=O)(=O)C2)n1 (stereo not drawn) [I-797, N-(1,1-dioxo-2,3-dihydro-1lambda6-thiophen-3-yl)-N-{[4-(2-hydroxypropan-2-yl)-1,3-thiazol-2-yl]methyl}-2-[4-(3,4,5-trifluorophenyl)-1H-pyrazol-1-yl]acetamide]
> 50 | O=C(Cc1ccc(-n2cccc2)cc1)N(Cc1ccccc1)C1C=CS(=O)(=O)C1 (single isomer, unassigned) [I-488]
> 50 | O=C(Cc1ccc(C2CCCC2O)cc1)N(Cc1ccncc1)C1C=CS(=O)(=O)C1 (stereo not drawn) [I-449, N-(1,1-dioxo-2,3-dihydro-1lambda6-thiophen-3-yl)-2-[4-(2-hydroxycyclopentyl)phenyl]-N-[(pyridin-4-yl)methyl]acetamide]
10 to 50 | O=C(Cc1ccc(-c2ccccc2)cn1)N(Cc1ccccc1)C1C=CS(=O)(=O)C1 (stereo not drawn) [I-341, N-benzyl-N-(1,1-dioxo-2,3-dihydro-1lambda6-thiophen-3-yl)-2-(5-phenylpyridin-2-yl)acetamide]
< 0.5 | Cc1cccn1-c1ccc2c(c1)CC(C(=O)N(Cc1ccnc(C(C)(C)O)c1)[C@@H]1C=CS(=O)(=O)C1)O2 (single isomer, unassigned) [I-607]
< 0.5 | CC(C)(O)c1cc(CN(C(=O)Cc2ccc(-c3cc(F)c(F)c(F)c3)cc2F)C2C=CS(=O)(=O)C2)ccn1 (stereo not drawn) [I-19, N-(1,1-dioxo-2,3-dihydro-1lambda6-thiophen-3-yl)-N-{[2-(2-hydroxypropan-2-yl)pyridin-4-yl]methyl}-2-{3,3′,4′,5′-tetrafluoro-[1,1′-biphenyl]-4-yl}acetamide]
> 50 | O=C(Cc1csc(C2CCCC2)n1)N(Cc1ccncc1)C1C=CS(=O)(=O)C1 (stereo not drawn) [I-445, 2-(2-cyclopentyl-1,3-thiazol-4-yl)-N-(1,1-dioxo-2,3-dihydro-1lambda6-thiophen-3-yl)-N-[(pyridin-4-yl)methyl]acetamide]
< 0.5 | CC(C)(O)c1cc(CN(C(=O)Cn2cc(-c3ccc(F)cc3)cn2)[C@@H]2C=CS(=O)(=O)C2)ccn1 [I-15, N-[(3R)-1,1-dioxo-2,3-dihydro-1lambda6-thiophen-3-yl]-2-[4-(4-fluorophenyl)-1H-pyrazol-1-yl]-N-{[2-(2-hydroxypropan-2-yl)pyridin-4-yl]methyl}acetamide]
< 0.5 | CC(C)(O)c1cc(CN(C(=O)Cc2ccc(S(F)(F)(F)(F)F)cc2F)C2C=CS(=O)(=O)C2)ccn1 (stereo not drawn) [I-44, N-(1,1-dioxo-2,3-dihydro-1lambda6-thiophen-3-yl)-2-[2-fluoro-4-(pentafluoro-lambda6-sulfanyl)phenyl]-N-{[2-(2-hydroxypropan-2-yl)pyridin-4-yl]methyl}acetamide]
< 0.5 | CC(C)(O)c1cc(CN(C(=O)Cc2ccc(-c3ccc(F)c(F)c3)cc2F)C2C=CS(=O)(=O)C2)ccn1 (stereo not drawn) [I-32, N-(1,1-dioxo-2,3-dihydro-1lambda6-thiophen-3-yl)-N-{[2-(2-hydroxypropan-2-yl)pyridin-4-yl]methyl}-2-{3,3′,4′-trifluoro-[1,1′-biphenyl]-4-yl}acetamide]
> 50 | O=C(c1ccc(-n2cccc2)cc1)N(Cc1ccccc1)C1C=CS(=O)(=O)C1 (stereo not drawn) [I-486, N-benzyl-N-(1,1-dioxo-2,3-dihydro-1lambda6-thiophen-3-yl)-4-(1H-pyrrol-1-yl)benzamide]
> 50 | O=C(Cn1cc(-c2ccccc2)nn1)N(Cc1ccncc1)C1C=CS(=O)(=O)C1 (stereo not drawn) [I-403, N-(1,1-dioxo-2,3-dihydro-1lambda6-thiophen-3-yl)-2-(4-phenyl-1H-1,2,3-triazol-1-yl)-N-[(pyridin-4-yl)methyl]acetamide]
5 to 10 | C#CCCCC(=O)N1CCN(C(=O)c2ccc(CN(C(=O)Cc3ccc(-n4cccc4)cc3F)C3C=CS(=O)(=O)C3)cc2)CC1 (stereo not drawn) [I-229, N-(1,1-dioxo-2,3-dihydro-1lambda6-thiophen-3-yl)-2-[2-fluoro-4-(1H-pyrrol-1-yl)phenyl]-N-({4-[4-(hex-5-ynoyl)piperazine-1-carbonyl]phenyl}methyl)acetamide]
> 50 | O=C(C1Cc2ccc(Cl)cc21)N(Cc1ccncc1)C1C=CS(=O)(=O)C1 (stereo not drawn) [I-650, 4-chloro-N-(1,1-dioxo-2,3-dihydro-1lambda6-thiophen-3-yl)-N-[(pyridin-4-yl)methyl]bicyclo[4.2.0]octa-1,3,5-triene-7-carboxamide]
> 50 | Cc1c(CC(=O)N(Cc2ccncc2)C2C=CS(=O)(=O)C2)c(=O)[nH]c2ccccc12 (stereo not drawn) [I-418, N-(1,1-dioxo-2,3-dihydro-1lambda6-thiophen-3-yl)-2-(4-methyl-2-oxo-1,2-dihydroquinolin-3-yl)-N-[(pyridin-4-yl)methyl]acetamide]
10 to 50 | CCc1ccc(CC(=O)N(Cc2ccncc2)C2C=CS(=O)(=O)C2)cc1 (stereo not drawn) [I-308, N-(1,1-dioxo-2,3-dihydro-1lambda6-thiophen-3-yl)-2-(4-ethylphenyl)-N-[(pyridin-4-yl)methyl]acetamide]
< 0.5 | COc1cc(CN(C(=O)Cn2cc(-c3cc(F)c(F)c(F)c3)cn2)[C@@H]2C=CS(=O)(=O)C2)ccn1 [I-764, N-[(3R)-1,1-dioxo-2,3-dihydro-1lambda6-thiophen-3-yl]-N-[(2-methoxypyridin-4-yl)methyl]-2-[4-(3,4,5-trifluorophenyl)-1H-pyrazol-1-yl]acetamide]
< 0.5 | COc1cnn(C(C(=O)N(Cc2ccnc(OC)c2)[C@@H]2C=CS(=O)(=O)C2)c2ccc(-c3ccc(F)c(F)c3)cc2F)c1 (stereo partly drawn) [I-748, N-[(3R)-1,1-dioxo-2,3-dihydro-1lambda6-thiophen-3-yl]-2-(4-methoxy-1H-pyrazol-1-yl)-N-[(2-methoxypyridin-4-yl)methyl]-2-{3,3′,4′-trifluoro-[1,1′-biphenyl]-4-yl}acetamide]
10 to 50 | O=C(Cc1ccc(C2CC(F)(F)C2)cc1)N(Cc1ccncc1)C1C=CS(=O)(=O)C1 (stereo not drawn) [I-359, 2-[4-(3,3-difluorocyclobutyl)phenyl]-N-(1,1-dioxo-2,3-dihydro-1lambda6-thiophen-3-yl)-N-[(pyridin-4-yl)methyl]acetamide]
0.5 to 5 | COc1cc(CN(C(=O)C(OCC#N)c2ccc(-c3ccc(F)c(F)c3)cc2F)[C@@H]2C=CS(=O)(=O)C2)ccn1 (stereo partly drawn) [I-691, 2-(cyanomethoxy)-N-[(3R)-1,1-dioxo-2,3-dihydro-1lambda6-thiophen-3-yl]-N-[(2-methoxypyridin-4-yl)methyl]-2-{3,3′,4′-trifluoro-[1,1′-biphenyl]-4-yl}acetamide]
> 50 | COc1cc(CN(C(=O)C(OC)c2ccc(-c3ccc(F)cc3)cc2F)C2C=CS(=O)(=O)C2)ccn1 (single isomer, unassigned) [I-366, (2R*)-2-{3,4′-difluoro-[1,1′-biphenyl]-4-yl}-N-[(3R**)-1,1-dioxo-2,3-dihydro-1lambda6-thiophen-3-yl]-2-methoxy-N-[(2-methoxypyridin-4-yl)methyl]acetamide]
5 to 10 | O=C(Cc1ccc(-n2cccc2)cc1)N(Cc1ccncc1Cl)C1C=CS(=O)(=O)C1 (stereo not drawn) [I-228, N-[(3-chloropyridin-4-yl)methyl]-N-(1,1-dioxo-2,3-dihydro-1lambda6-thiophen-3-yl)-2-[4-(1H-pyrrol-1-yl)phenyl]acetamide]
< 0.5 | CC(C)(O)c1cc(CN(C(=O)Cc2ccc(C(F)(F)C(F)(F)F)cc2)C2C=CS(=O)(=O)C2)ccn1 (single isomer, unassigned) [I-673]
> 50 | O=C(Cc1ccc(N2CCOCC2)cc1)N(Cc1ccncc1)C1C=CS(=O)(=O)C1 (stereo not drawn) [I-564, N-(1,1-dioxo-2,3-dihydro-1lambda6-thiophen-3-yl)-2-[4-(morpholin-4-yl)phenyl]-N-[(pyridin-4-yl)methyl]acetamide]
< 0.5 | O=C(Cn1cc(-c2ccc(F)c(F)c2)cn1)N(Cc1nc(C2(F)CC2)cs1)C1C=CS(=O)(=O)C1 (stereo not drawn) [I-726, 2-[4-(3,4-difluorophenyl)-1H-pyrazol-1-yl]-N-(1,1-dioxo-2,3-dihydro-1lambda6-thiophen-3-yl)-N-{[4-(1-fluorocyclopropyl)-1,3-thiazol-2-yl]methyl}acetamide]
5 to 10 | CC(C(=O)N(Cc1ccnc(C(C)(C)O)c1)[C@@H]1C=CS(=O)(=O)C1)n1cc(-c2ccc(C(F)(F)F)cc2)cn1 (single isomer, unassigned) [I-788]
